Consider 11 compounds from patent US12404262B2 (priority 2021, dated 2025).

Read-outs that look alike come from different tables or passages of the source.

Where [1] appears, read: 0.1N HCl, 1.0% DMSO, 24-hour incubation at ambient temperature, maximum theoretical 100 μM, first value of the cell.
[2] abbreviates: 1×PBS buffer (pH 7.4), 1.0% DMSO, 24-hour incubation at ambient temperature, maximum theoretical 100 μM, second value of the cell.

Turning to `CC(C)(C#Cc1ccc(-c2ccc(Cl)c3c(N(C(=O)NCC(=O)O)S(C)(=O)=O)nn(CC(F)(F)F)c23)c([C@H](Cc2cc(F)cc(F)c2)NC(=O)Cn2nc(C(F)(F)F)c3c2C(F)(F)[C@@H]2C[C@H]32)n1)S(C)(=O)=O` [Compound 72, ((4-chloro-7-(2-((S)-1-(2-((3bS,4aR)-5,5-difluoro-3-(trifluoromethyl)-3b,4,4a,5-tetrahydro-1H-cyclopropa[3,4]cyclopenta[1,2-c]pyrazol-1-yl)acetamido)-2-(3,5-difluorophenyl)ethyl)-6-(3-methyl-3-(methylsulfonyl)but-1-yn-1-yl)pyridin-3-yl)-1-(2,2,2-trifluoroethyl)-1H-indazol-3-yl)(methylsulfonyl)carbamoyl)glycine], the “pH 2 solubility” value under setting [1] is recorded as 1 μM. The “pH 7 solubility” value under setting [2] amounted to 9 μM.
As for `CC(C)(C#Cc1ccc(-c2ccc(Cl)c3c(N(C(=O)OCCO)S(C)(=O)=O)nn(CC(F)(F)F)c23)c([C@H](Cc2cc(F)cc(F)c2)NC(=O)Cn2nc(C(F)(F)F)c3c2C(F)(F)[C@@H]2C[C@H]32)n1)S(C)(=O)=O` [Compound 99, 2-hydroxyethyl (4-chloro-7-(2-((S)-1-(2-((3bS,4aR)-5,5-difluoro-3-(trifluoromethyl)-3b,4,4a,5-tetrahydro-1H-cyclopropa[3,4]cyclopenta[1,2-c]pyrazol-1-yl)acetamido)-2-(3,5-difluorophenyl)ethyl)-6-(3-methyl-3-(methylsulfonyl)but-1-yn-1-yl)pyridin-3-yl)-1-(2,2,2-trifluoroethyl)-1H-indazol-3-yl)(methylsulfonyl)carbamate], the “pH 2 solubility” value under setting [1] is on record as 1/1 μM. Besides, the “pH 7 solubility” value under setting [2] is listed as 1/1 μM.
For the compound `C[C@H](O)[C@H](C)OC(=O)N(c1nn(CC(F)(F)F)c2c(-c3ccc(C#CC(C)(C)S(C)(=O)=O)nc3[C@H](Cc3cc(F)cc(F)c3)NC(=O)Cn3nc(C(F)(F)F)c4c3C(F)(F)[C@@H]3C[C@H]43)ccc(Cl)c12)S(C)(=O)=O` [Compound 95, (2S,3S)-3-hydroxybutan-2-yl (4-chloro-7-(2-((S)-1-(2-((3bS,4aR)-5,5-difluoro-3-(trifluoromethyl)-3b,4,4a,5-tetrahydro-1H-cyclopropa[3,4]cyclopenta[1,2-c]pyrazol-1-yl)acetamido)-2-(3,5-difluorophenyl)ethyl)-6-(3-methyl-3-(methylsulfonyl)but-1-yn-1-yl)pyridin-3-yl)-1-(2,2,2-trifluoroethyl)-1H-indazol-3-yl)(methylsulfonyl)carbamate], the “pH 2 solubility” value under setting [1] turned out to be 1 μM. Under setting [2], the “pH 7 solubility” value was determined as 3 μM.
For the compound `CC(C)(C#Cc1ccc(-c2ccc(Cl)c3c(N(C(=O)N[C@H](CC(=O)O)C(=O)O)S(C)(=O)=O)nn(CC(F)(F)F)c23)c([C@H](Cc2cc(F)cc(F)c2)NC(=O)Cn2nc(C(F)(F)F)c3c2C(F)(F)[C@@H]2C[C@H]32)n1)S(C)(=O)=O` [Compound 70, ((4-chloro-7-(2-((S)-1-(2-((3bS,4aR)-5,5-difluoro-3-(trifluoromethyl)-3b,4,4a,5-tetrahydro-1H-cyclopropa[3,4]cyclopenta[1,2-c]pyrazol-1-yl)acetamido)-2-(3,5-difluorophenyl)ethyl)-6-(3-methyl-3-(methylsulfonyl)but-1-yn-1-yl)pyridin-3-yl)-1-(2,2,2-trifluoroethyl)-1H-indazol-3-yl)(methylsulfonyl)carbamoyl)-D-aspartic acid], the “pH 2 solubility” value under setting [1] was found to be 1 μM. Moreover, the “pH 7 solubility” value under setting [2] was 58 μM.
In the case of `C[C@H](OC(=O)N(c1nn(CC(F)(F)F)c2c(-c3ccc(C#CC(C)(C)S(C)(=O)=O)nc3[C@H](Cc3cc(F)cc(F)c3)NC(=O)Cn3nc(C(F)(F)F)c4c3C(F)(F)[C@@H]3C[C@H]43)ccc(Cl)c12)S(C)(=O)=O)[C@H](C)OP(=O)(O)O` [Compound 96, (2S,3S)-3-(phosphonooxy)butan-2-yl (4-chloro-7-(2-((S)-1-(2-((3bS,4aR)-5,5-difluoro-3-(trifluoromethyl)-3b,4,4a,5-tetrahydro-1H-cyclopropa[3,4]cyclopenta[1,2-c]pyrazol-1-yl)acetamido)-2-(3,5-difluorophenyl)ethyl)-6-(3-methyl-3-(methylsulfonyl)but-1-yn-1-yl)pyridin-3-yl)-1-(2,2,2-trifluoroethyl)-1H-indazol-3-yl)(methylsulfonyl)carbamate], the “pH 2 solubility” value under setting [1] is recorded as 1 μM. Moreover, the “pH 7 solubility” value under setting [2] worked out at 99 μM.
For the compound `C[C@H](OC(=O)N(c1nn(CC(F)(F)F)c2c(-c3ccc(C#CC(C)(C)S(C)(=O)=O)nc3[C@H](Cc3cc(F)cc(F)c3)NC(=O)Cn3nc(C(F)(F)F)c4c3C(F)(F)[C@@H]3C[C@H]43)ccc(Cl)c12)S(C)(=O)=O)C(=O)O` [Compound 115, (S)-2-(((4-chloro-7-(2-((S)-1-(2-((3bS,4aR)-5,5-difluoro-3-(trifluoromethyl)-3b,4,4a,5-tetrahydro-1H-cyclopropa[3,4]cyclopenta[1,2-c]pyrazol-1-yl)acetamido)-2-(3,5-difluorophenyl)ethyl)-6-(3-methyl-3-(methylsulfonyl)but-1-yn-1-yl)pyridin-3-yl)-1-(2,2,2-trifluoroethyl)-1H-indazol-3-yl)(methylsulfonyl)carbamoyl)oxy)propanoic acid], the “pH 2 solubility” value under setting [1] is given as 1/1 μM. Moreover, the “pH 7 solubility” value under setting [2] is recorded as 1/1 μM.
Take `CC(C)(C#Cc1ccc(-c2ccc(Cl)c3c(N(C(=O)OCCCO)S(C)(=O)=O)nn(CC(F)(F)F)c23)c([C@H](Cc2cc(F)cc(F)c2)NC(=O)Cn2nc(C(F)(F)F)c3c2C(F)(F)[C@@H]2C[C@H]32)n1)S(C)(=O)=O` [Compound 97, 3-hydroxypropyl (4-chloro-7-(2-((S)-1-(2-((3bS,4aR)-5,5-difluoro-3-(trifluoromethyl)-3b,4,4a,5-tetrahydro-1H-cyclopropa[3,4]cyclopenta[1,2-c]pyrazol-1-yl)acetamido)-2-(3,5-difluorophenyl)ethyl)-6-(3-methyl-3-(methylsulfonyl)but-1-yn-1-yl)pyridin-3-yl)-1-(2,2,2-trifluoroethyl)-1H-indazol-3-yl)(methylsulfonyl)carbamate]: the “pH 2 solubility” value under setting [1] was 1 μM. Moreover, the “pH 7 solubility” value under setting [2] was found to be 2 μM.
For `CC(C)(C#Cc1ccc(-c2ccc(Cl)c3c(N(C(=O)OC(CCC(=O)O)CCC(=O)O)S(C)(=O)=O)nn(CC(F)(F)F)c23)c([C@H](Cc2cc(F)cc(F)c2)NC(=O)Cn2nc(C(F)(F)F)c3c2C(F)(F)[C@@H]2C[C@H]32)n1)S(C)(=O)=O` [Compound 124, 4-(((4-chloro-7-(2-((S)-1-(2-((3bS,4aR)-5,5-difluoro-3-(trifluoromethyl)-3b,4,4a,5-tetrahydro-1H-cyclopropa[3,4]cyclopenta[1,2-c]pyrazol-1-yl)acetamido)-2-(3,5-difluorophenyl)ethyl)-6-(3-methyl-3-(methylsulfonyl)but-1-yn-1-yl)pyridin-3-yl)-1-(2,2,2-trifluoroethyl)-1H-indazol-3-yl)(methylsulfonyl)carbamoyl)oxy)heptanedioic acid], the “pH 7 solubility” value is listed as 2/83 μM. The “pH 2 solubility” value (pH 2) is 2/83 μM.
As to `CC(NC(=O)N(c1nn(CC(F)(F)F)c2c(-c3ccc(C#CC(C)(C)S(C)(=O)=O)nc3[C@H](Cc3cc(F)cc(F)c3)NC(=O)Cn3nc(C(F)(F)F)c4c3C(F)(F)[C@@H]3C[C@H]43)ccc(Cl)c12)S(C)(=O)=O)(C(=O)O)C(=O)O` [Compound 52, 2-(3-(4-chloro-7-(2-((S)-1-(2-((3bS,4aR)-5,5-difluoro-3-(trifluoromethyl)-3b,4,4a,5-tetrahydro-1H-cyclopropa[3,4]cyclopenta[1,2-c]pyrazol-1-yl)acetamido)-2-(3,5-difluorophenyl)ethyl)-6-(3-methyl-3-(methylsulfonyl)but-1-yn-1-yl)pyridin-3-yl)-1-(2,2,2-trifluoroethyl)-1H-indazol-3-yl)-3-(methylsulfonyl)ureido)-2-methylmalonic acid], the “pH 2 solubility” value under setting [1] is listed as 1 μM. The “pH 7 solubility” value under setting [2] is 100 μM.
On to `CC(C)(C#Cc1ccc(-c2ccc(Cl)c3c(N(C(=O)OCCOCCOCCOP(=O)(O)O)S(C)(=O)=O)nn(CC(F)(F)F)c23)c([C@H](Cc2cc(F)cc(F)c2)NC(=O)Cn2nc(C(F)(F)F)c3c2C(F)(F)[C@@H]2C[C@H]32)n1)S(C)(=O)=O` [Compound 108, 2-(2-(2-(phosphonooxy)ethoxy)ethoxy)ethyl (4-chloro-7-(2-((S)-1-(2-((3bS,4aR)-5,5-difluoro-3-(trifluoromethyl)-3b,4,4a,5-tetrahydro-1H-cyclopropa[3,4]cyclopenta[1,2-c]pyrazol-1-yl)acetamido)-2-(3,5-difluorophenyl)ethyl)-6-(3-methyl-3-(methylsulfonyl)but-1-yn-1-yl)pyridin-3-yl)-1-(2,2,2-trifluoroethyl)-1H-indazol-3-yl)(methylsulfonyl)carbamate], for which the “pH 2 solubility” value under setting [1] is on record as 1 μM. Also, under setting [2], the “pH 7 solubility” value amounted to 100 μM.
On the same counts, the results for `CC(C)(C#Cc1ccc(-c2ccc(Cl)c3c(N(C(=O)CN4CCN(C(=N)N)CC4)S(C)(=O)=O)nn(CC(F)(F)F)c23)c([C@H](Cc2cc(F)cc(F)c2)NC(=O)Cn2nc(C(F)(F)F)c3c2C(F)(F)[C@@H]2C[C@H]32)n1)S(C)(=O)=O` [Compound 8, 2-(4-carbamimidoylpiperazin-1-yl)-N-(4-chloro-7-(2-((S)-1-(2-((3bS,4aR)-5,5-difluoro-3-(trifluoromethyl)-3b,4,4a,5-tetrahydro-1H-cyclopropa[3,4]cyclopenta[1,2-c]pyrazol-1-yl)acetamido)-2-(3,5-difluorophenyl)ethyl)-6-(3-methyl-3-(methylsulfonyl)but-1-yn-1-yl)pyridin-3-yl)-1-(2,2,2-trifluoroethyl)-1H-indazol-3-yl)-N-(methylsulfonyl)acetamide] are 57 μM and 6 μM.
